Values belong to the molecule of their own block, whether it stands above or below them.
Experiments:
[1] = background statement; cited from earlier work
[2] = Complex stability at human body temperature in the dark (1H NMR in D2O, 37° C.); assay type: physicochemical; settings: for Conversion of Ru compounds into their aqua complexes: +37° C.
Description: D2O (0.80 mL) was added to each of the NMR tubes and ^1H NMR spectra were taken. The NMR tubes were put into closed pressure tubes and kept in the dark at 37° C. to check the stability of the Ru—Cl and Ru—S bond. ^1H NMR spectra of each of the tubes were taken after 4 hours, 1 day, 3 days and 3 weeks. The NMR tubes were kept in an ice bath during transport in order to temporarily freeze the reaction. In the case of [Ru(terpy)(bpy)(Cl)](Cl), an equilibrium had been reached after four hours, characterized by 10% of [Ru(terpy)(bpy)(Cl)](Cl) and 90% of [Ru(terpy)(bpy)(H2O)](Cl)2.
The stability of the Ru—S bond was measured at human body temperature and in the dark. To do so, compound [Ru(tpy)(apy)Cl]Cl, and [Ru(tpy)(apy)(AMet)]Cl2, (compound [13](Cl)2) were dissolved in D2O and kept in the dark at 37° C. The release of the aqua species was measured by ^1H NMR after 4 hours, 1 days, and 3 weeks. […] The stability of the Ru—S bond depends on the nature of the polypyridyl ligands (see Example 2), but in general it is much higher than that of the Ru—Cl bond.

HepG2 cancer cells = assay: WST-1 cell viability test in the dark; assay type: cell-based; settings: 1.7 mM, 30 min in the dark, WST-1 normalized to protein content
Description: HepG2 cancer cells were grown in RPMI 1640 medium containing (−) L-glutamine at 37° C. and in an atmosphere of […] and 5% CO2. […] In this experiment, the difference in water solubility between the chlorido and thioether complexes might also play a role, as uptake might be different for both compounds.

[3] = Light-induced cleavage of the Ru-S bond in aqueous solution; assay type: physicochemical
[4] = 37° C., equilibrium after four hours

aqua complex [Ru(terpy)(bpy)(H2O)](Cl)2 at equilibrium [2, 4]: 90%
starting chlorido complex at equilibrium [2, 4]: 10%
Molecule: [Ru(terpy)(bpy)(Cl)](Cl)
cell survival reduced by (HepG2 cancer cells): 49%

photosubstitution of the monodentate sulfur ligand ([3]; white light, aqueous solution): photosubstituted by an aqua ligand
Molecule: [Ru(terpy)(bpy)(mte)](BF4)2 [Compound [9](BF4)2]

photochemical cleavage of the Ru-S bond ([3]; visible light, D2O, 1H NMR and thin layer chromatography): photochemically labile
Conversion of Ru compounds into their aqua complexes ([2]; 3 weeks): 46%
Conversion of Ru compounds into their aqua complexes ([2]; 4 h): no sign of cleavage
Conversion of Ru compounds into their aqua complexes ([2]; 4 h, listed as [Ru(tpy)(apy)(AMet)](Cl)2): 0%
Conversion of Ru compounds into their aqua complexes ([2]; 1 day): 21%
Molecule: [Ru(tpy)(apy)(AMet)]Cl2 [Compound [13](Cl)2]

More lines, now with the values behind:

Molecule: [Cl-].[Cl-].[Cl-].[Ru+3].c1ccc(-c2cccc(-c3ccccn3)n2)nc1 [mer-[Ru(terpy)(Cl)3]]
solubility in water [1]: poorly soluble in water

Molecule: [Cl-].[Cl-].[Ru+2].c1ccc(N=Nc2ccccn2)cc1.c1ccc(N=Nc2ccccn2)cc1 [α-[Ru(azpy)2(Cl)2]]
solubility in water [1]: poorly soluble in water

Molecule: [Ru(terpy)(apy)(Cl)](Cl) [[Ru(tpy)(apy)(Cl)](Cl)]
Conversion of Ru compounds into their aqua complexes ([2]; 3 weeks): 48%
Conversion of Ru compounds into their aqua complexes ([2]; 4 h): 48%
Conversion of Ru compounds into their aqua complexes ([2]; 1 day): 48%

Molecule: [Ru(terpy)(bpy)(D-biotin)](Cl)2 [Compound [7](Cl)2]
cell survival reduced by (HepG2 cancer cells): not reduced

Reference: US9255118B2, “Light induced drug release” (UNIVERSITEIT LEIDEN, priority 2010, dated 2016)
